Experimental data reported in paper PMC7572767 (Psychopharmacology, 2020).

Molecular target: norepinephrine transporter (NET) (Homo sapiens, UniProt P23975)
Test: fluorescent substrate uptake inhibition in HEK293 cells stably expressing NET
Assay type: cell-based

norepinephrine transporter (NET), sequence (P23975 whole entry): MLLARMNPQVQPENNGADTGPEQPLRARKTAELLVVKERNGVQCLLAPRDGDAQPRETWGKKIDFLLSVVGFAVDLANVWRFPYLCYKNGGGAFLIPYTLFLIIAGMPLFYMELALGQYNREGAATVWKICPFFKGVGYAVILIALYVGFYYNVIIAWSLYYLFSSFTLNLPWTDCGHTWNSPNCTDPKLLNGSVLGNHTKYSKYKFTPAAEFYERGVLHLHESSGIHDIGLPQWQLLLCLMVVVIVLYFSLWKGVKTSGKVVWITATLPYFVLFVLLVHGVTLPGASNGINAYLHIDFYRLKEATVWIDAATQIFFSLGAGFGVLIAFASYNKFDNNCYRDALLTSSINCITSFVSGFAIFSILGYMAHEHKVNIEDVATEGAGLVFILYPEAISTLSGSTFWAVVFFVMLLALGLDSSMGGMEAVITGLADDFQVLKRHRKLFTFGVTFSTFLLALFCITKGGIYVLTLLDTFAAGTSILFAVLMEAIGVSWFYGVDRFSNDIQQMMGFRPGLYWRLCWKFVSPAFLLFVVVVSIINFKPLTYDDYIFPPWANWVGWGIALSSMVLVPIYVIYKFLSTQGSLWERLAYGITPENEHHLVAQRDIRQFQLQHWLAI

SMILES: [O-][S@@+](Cc1cncs1)[C@@H](c1ccccc1)c1cccc(Br)c1 [(S, S)-CE-158, 5-(((S)-((S)-(3-bromophenyl)(phenyl)methyl)sulfinyl)methyl)thiazole]
- IC50: 12 µM
